From publication PMC9330389, “Bambus[4,6]urils as Dual Scaffolds for Multivalent Iminosugar Presentation and Ion Transport: Access to Unprecedented Glycosidase-Directed Anion Caging Agents” (Molecules, 2022)
Read-outs that look alike come from different tables or passages of the source.

Legend:
Jack Bean α-mannosidase [1] = target: T1, Jack Bean α-mannosidase (Canavalia ensiformis, UniProt C0HJB3); experiment: Inhibition assays on Jack-Bean α-mannosidase (p-nitrophenyl-α-D-mannopyranoside hydrolysis, Dixon and Lineweaver–Burk); format: biochemical; conditions: for Ki: 0.2 M acetate buffer pH 5, 25-27 °C, for mixed inhibitors the first value of the cell (Ki); for rp/n (relative potency per inhitope): n = number of inhitope units; for Rp (relative potency): rp = Ki (monovalent reference)/Ki (neoglycocluster); for Ki': mixed inhibition, second value of the cell (Ki' in supplement)
T1 construct: purchased Sigma Aldrich, St. Louis, MO, USA
T1 sequence (C0HJB3 1-981): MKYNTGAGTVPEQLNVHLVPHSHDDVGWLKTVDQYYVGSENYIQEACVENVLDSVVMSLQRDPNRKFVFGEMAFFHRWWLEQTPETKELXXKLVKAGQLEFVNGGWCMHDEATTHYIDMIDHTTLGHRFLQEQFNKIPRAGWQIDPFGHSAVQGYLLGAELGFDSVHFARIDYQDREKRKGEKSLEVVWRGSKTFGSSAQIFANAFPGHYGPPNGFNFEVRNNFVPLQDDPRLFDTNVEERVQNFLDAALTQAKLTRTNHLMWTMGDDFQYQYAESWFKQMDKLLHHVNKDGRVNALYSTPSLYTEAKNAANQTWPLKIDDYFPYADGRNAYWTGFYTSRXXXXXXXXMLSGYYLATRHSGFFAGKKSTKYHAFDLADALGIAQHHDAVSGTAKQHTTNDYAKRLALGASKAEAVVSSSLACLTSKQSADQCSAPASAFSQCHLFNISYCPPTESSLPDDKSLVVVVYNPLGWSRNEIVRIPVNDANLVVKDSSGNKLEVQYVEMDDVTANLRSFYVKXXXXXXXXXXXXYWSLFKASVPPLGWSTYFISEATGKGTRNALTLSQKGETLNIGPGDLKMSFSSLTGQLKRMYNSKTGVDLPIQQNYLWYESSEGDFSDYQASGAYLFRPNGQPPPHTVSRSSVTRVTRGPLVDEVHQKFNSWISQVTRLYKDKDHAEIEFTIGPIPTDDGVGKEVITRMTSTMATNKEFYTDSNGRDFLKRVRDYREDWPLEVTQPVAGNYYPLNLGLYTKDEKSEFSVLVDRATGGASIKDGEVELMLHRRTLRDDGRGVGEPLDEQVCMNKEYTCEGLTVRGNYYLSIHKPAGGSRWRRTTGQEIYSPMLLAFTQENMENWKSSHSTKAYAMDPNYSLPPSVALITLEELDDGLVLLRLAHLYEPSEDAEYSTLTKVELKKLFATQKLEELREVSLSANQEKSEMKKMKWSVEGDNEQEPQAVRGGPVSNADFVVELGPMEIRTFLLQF
Description: p-nitrophenyl-α-D-mannopyranoside and α-mannosidase (EC 3.2.1.24, from Jack Bean) were purchased from Sigma Aldrich, St. Louis, MO, USA. Inhibition constants were determined spectrophotometrically by measuring the residual hydrolytic activities of the α-mannosidase against p-nitrophenyl-α-D-mannopyranoside in the presence and absence of an inhibitor. Each well was filled with a total volume of 100 µL, containing 0.2 M acetate buffer pH 5, inhibitor, substrate and enzyme. All kinetics were performed between 25 °C and 27 °C and started by enzyme addition. After 30–50 min of incubation, the reaction was quenched by addition of 100 µL of 1M Na2CO3. The absorbance of the resulting solution was determined at 405 nm. Ki values were determined in triplicate, using the Dixon and Lineweaver–Burk graphical methods within Microsoft Excel. Stock solutions of inhibitors were prepared with DMSO/buffer for final well DMSO content under 5%. The stability of the enzyme in the presence of the same concentrations of DMSO was controlled and enzyme activity was unaffected.

Jack Bean α-mannosidase [2] = target: T1, Jack Bean α-mannosidase; conditions: cited from earlier work

Structure (SMILES) | Inhibition Mode (Jack Bean α-mannosidase [1]) | Ki (Jack Bean α-mannosidase [1]) | rp/n (relative potency per inhitope) (Jack Bean α-mannosidase [1]) | Rp (relative potency) (Jack Bean α-mannosidase [1]) | Ki' (Jack Bean α-mannosidase [1]) | Ki (Jack Bean α-mannosidase [2]; monovalent C6 reference) | Inhibition Mode (Jack Bean α-mannosidase [2]; monovalent references)
O=C1N(Cc2cn(CCCCCCN3C[C@H](O)[C@@H](O)[C@H](O)[C@H]3CO)nn2)[C@H]2[C@@H](N1Cc1cn(CCCCCCN3C[C@H](O)[C@@H](O)[C@H](O)[C@H]3CO)nn1)N1CN3C(=O)N(CN4C(=O)N(CN5C(=O)N(CN2C1=O)[C@@H]1[C@H]5N(Cc2cn(CCCCCCN5C[C@H](O)[C@@H](O)[C@H](O)[C@H]5CO)nn2)C(=O)N1Cc1cn(CCCCCCN2C[C@H](O)[C@@H](O)[C@H](O)[C@H]2CO)nn1)[C@H]1[C@@H]4N(Cc2cn(CCCCCCN4C[C@H](O)[C@@H](O)[C@H](O)[C@H]4CO)nn2)C(=O)N1Cc1cn(CCCCCCN2C[C@H](O)[C@@H](O)[C@H](O)[C@H]2CO)nn1)[C@@H]1[C@H]3N(Cc2cn(CCCCCCN3C[C@H](O)[C@@H](O)[C@H](O)[C@H]3CO)nn2)C(=O)N1Cc1cn(CCCCCCN2C[C@H](O)[C@@H](O)[C@H](O)[C@H]2CO)nn1 [Compound 3, (DNJ-C6)8BU[4]] | competitive | 9.7 µM | 4 | 33 |  |  | 
O=C1N(Cc2cn(CCCCCCCCCN3C[C@H](O)[C@@H](O)[C@H](O)[C@H]3CO)nn2)C2C(N1Cc1cn(CCCCCCCCCN3C[C@H](O)[C@@H](O)[C@H](O)[C@H]3CO)nn1)N1CN3C(=O)N(CN4C(=O)N(CN5C(=O)N(CN2C1=O)C1C5N(Cc2cn(CCCCCCCCCN5C[C@H](O)[C@@H](O)[C@H](O)[C@H]5CO)nn2)C(=O)N1Cc1cn(CCCCCCCCCN2C[C@H](O)[C@@H](O)[C@H](O)[C@H]2CO)nn1)C1C4N(Cc2cn(CCCCCCCCCN4C[C@H](O)[C@@H](O)[C@H](O)[C@H]4CO)nn2)C(=O)N1Cc1cn(CCCCCCCCCN2C[C@H](O)[C@@H](O)[C@H](O)[C@H]2CO)nn1)C1C3N(Cc2cn(CCCCCCCCCN3C[C@H](O)[C@@H](O)[C@H](O)[C@H]3CO)nn2)C(=O)N1Cc1cn(CCCCCCCCCN2C[C@H](O)[C@@H](O)[C@H](O)[C@H]2CO)nn1 (stereo partly drawn) [Compound 4, (DNJ-C9)8BU[4]] | competitive | 0.71 µM | 33 | 265 |  |  | 
O=C1N(Cc2cn(CCCCCCCCCN3C[C@H](O)[C@@H](O)[C@H](O)[C@H]3CO)nn2)C2C(N1Cc1cn(CCCCCCCCCN3C[C@H](O)[C@@H](O)[C@H](O)[C@H]3CO)nn1)N1CN3C(=O)N(CN4C(=O)N(CN5C(=O)N(CN6C(=O)N(CN7C(=O)N(CN2C1=O)C1C7N(Cc2cn(CCCCCCCCCN7C[C@H](O)[C@@H](O)[C@H](O)[C@H]7CO)nn2)C(=O)N1Cc1cn(CCCCCCCCCN2C[C@H](O)[C@@H](O)[C@H](O)[C@H]2CO)nn1)C1C6N(Cc2cn(CCCCCCCCCN6C[C@H](O)[C@@H](O)[C@H](O)[C@H]6CO)nn2)C(=O)N1Cc1cn(CCCCCCCCCN2C[C@H](O)[C@@H](O)[C@H](O)[C@H]2CO)nn1)C1C5N(Cc2cn(CCCCCCCCCN5C[C@H](O)[C@@H](O)[C@H](O)[C@H]5CO)nn2)C(=O)N1Cc1cn(CCCCCCCCCN2C[C@H](O)[C@@H](O)[C@H](O)[C@H]2CO)nn1)C1C4N(Cc2cn(CCCCCCCCCN4C[C@H](O)[C@@H](O)[C@H](O)[C@H]4CO)nn2)C(=O)N1Cc1cn(CCCCCCCCCN2C[C@H](O)[C@@H](O)[C@H](O)[C@H]2CO)nn1)C1C3N(Cc2cn(CCCCCCCCCN3C[C@H](O)[C@@H](O)[C@H](O)[C@H]3CO)nn2)C(=O)N1Cc1cn(CCCCCCCCCN2C[C@H](O)[C@@H](O)[C@H](O)[C@H]2CO)nn1 (stereo partly drawn) [Compound 7, (DNJ-C9)12BU[6]] | competitive | 1.06 µM | 15 | 177 |  |  | 
CCCC[N+](CCCC)(CCCC)CCCC.O=C1N(Cc2cn(CCCCCCN3C[C@H](O)[C@@H](O)[C@H](O)[C@H]3CO)nn2)C2C(N1Cc1cn(CCCCCCN3C[C@H](O)[C@@H](O)[C@H](O)[C@H]3CO)nn1)N1CN3C(=O)N(CN4C(=O)N(CN5C(=O)N(CN6C(=O)N(CN7C(=O)N(CN2C1=O)C1C7N(Cc2cn(CCCCCCN7C[C@H](O)[C@@H](O)[C@H](O)[C@H]7CO)nn2)C(=O)N1Cc1cn(CCCCCCN2C[C@H](O)[C@@H](O)[C@H](O)[C@H]2CO)nn1)C1C6N(Cc2cn(CCCCCCN6C[C@H](O)[C@@H](O)[C@H](O)[C@H]6CO)nn2)C(=O)N1Cc1cn(CCCCCCN2C[C@H](O)[C@@H](O)[C@H](O)[C@H]2CO)nn1)C1C5N(Cc2cn(CCCCCCN5C[C@H](O)[C@@H](O)[C@H](O)[C@H]5CO)nn2)C(=O)N1Cc1cn(CCCCCCN2C[C@H](O)[C@@H](O)[C@H](O)[C@H]2CO)nn1)C1C4N(Cc2cn(CCCCCCN4C[C@H](O)[C@@H](O)[C@H](O)[C@H]4CO)nn2)C(=O)N1Cc1cn(CCCCCCN2C[C@H](O)[C@@H](O)[C@H](O)[C@H]2CO)nn1)C1C3N(Cc2cn(CCCCCCN3C[C@H](O)[C@@H](O)[C@H](O)[C@H]3CO)nn2)C(=O)N1Cc1cn(CCCCCCN2C[C@H](O)[C@@H](O)[C@H](O)[C@H]2CO)nn1.[Br-] (stereo partly drawn) [Compound 8, Br^−@(DNJ-C6)12BU[6].TBA^+] | mixed | 85.6 µM |  | 3.8 | 191 ± 37 µM |  | 
CCCC[N+](CCCC)(CCCC)CCCC.O=C1N(Cc2cn(CCCCCCN3C[C@H](O)[C@@H](O)[C@H](O)[C@H]3CO)nn2)C2C(N1Cc1cn(CCCCCCN3C[C@H](O)[C@@H](O)[C@H](O)[C@H]3CO)nn1)N1CN3C(=O)N(CN4C(=O)N(CN5C(=O)N(CN6C(=O)N(CN7C(=O)N(CN2C1=O)C1C7N(Cc2cn(CCCCCCN7C[C@H](O)[C@@H](O)[C@H](O)[C@H]7CO)nn2)C(=O)N1Cc1cn(CCCCCCN2C[C@H](O)[C@@H](O)[C@H](O)[C@H]2CO)nn1)C1C6N(Cc2cn(CCCCCCN6C[C@H](O)[C@@H](O)[C@H](O)[C@H]6CO)nn2)C(=O)N1Cc1cn(CCCCCCN2C[C@H](O)[C@@H](O)[C@H](O)[C@H]2CO)nn1)C1C5N(Cc2cn(CCCCCCN5C[C@H](O)[C@@H](O)[C@H](O)[C@H]5CO)nn2)C(=O)N1Cc1cn(CCCCCCN2C[C@H](O)[C@@H](O)[C@H](O)[C@H]2CO)nn1)C1C4N(Cc2cn(CCCCCCN4C[C@H](O)[C@@H](O)[C@H](O)[C@H]4CO)nn2)C(=O)N1Cc1cn(CCCCCCN2C[C@H](O)[C@@H](O)[C@H](O)[C@H]2CO)nn1)C1C3N(Cc2cn(CCCCCCN3C[C@H](O)[C@@H](O)[C@H](O)[C@H]3CO)nn2)C(=O)N1Cc1cn(CCCCCCN2C[C@H](O)[C@@H](O)[C@H](O)[C@H]2CO)nn1.[I-] (stereo partly drawn) [Compound 9, I^-@(DNJ-C6)12BU[6].TBA^+] | mixed | 108 µM | < 1 | 3.0 | 162 ± 40 µM |  | 
CCCC[N+](CCCC)(CCCC)CCCC.O=C1N(Cc2cn(CCCCCCCCCN3C[C@H](O)[C@@H](O)[C@H](O)[C@H]3CO)nn2)C2C(N1Cc1cn(CCCCCCCCCN3C[C@H](O)[C@@H](O)[C@H](O)[C@H]3CO)nn1)N1CN3C(=O)N(CN4C(=O)N(CN5C(=O)N(CN6C(=O)N(CN7C(=O)N(CN2C1=O)C1C7N(Cc2cn(CCCCCCCCCN7C[C@H](O)[C@@H](O)[C@H](O)[C@H]7CO)nn2)C(=O)N1Cc1cn(CCCCCCCCCN2C[C@H](O)[C@@H](O)[C@H](O)[C@H]2CO)nn1)C1C6N(Cc2cn(CCCCCCCCCN6C[C@H](O)[C@@H](O)[C@H](O)[C@H]6CO)nn2)C(=O)N1Cc1cn(CCCCCCCCCN2C[C@H](O)[C@@H](O)[C@H](O)[C@H]2CO)nn1)C1C5N(Cc2cn(CCCCCCCCCN5C[C@H](O)[C@@H](O)[C@H](O)[C@H]5CO)nn2)C(=O)N1Cc1cn(CCCCCCCCCN2C[C@H](O)[C@@H](O)[C@H](O)[C@H]2CO)nn1)C1C4N(Cc2cn(CCCCCCCCCN4C[C@H](O)[C@@H](O)[C@H](O)[C@H]4CO)nn2)C(=O)N1Cc1cn(CCCCCCCCCN2C[C@H](O)[C@@H](O)[C@H](O)[C@H]2CO)nn1)C1C3N(Cc2cn(CCCCCCCCCN3C[C@H](O)[C@@H](O)[C@H](O)[C@H]3CO)nn2)C(=O)N1Cc1cn(CCCCCCCCCN2C[C@H](O)[C@@H](O)[C@H](O)[C@H]2CO)nn1.[Br-] (stereo partly drawn) [Compound 10, Br^-@(DNJ-C9)12BU[6].TBA^+] | competitive | 0.488 µM | 32 | 385 |  |  | 
CCCn1cc(CCCCCCN2C[C@H](O)[C@@H](O)[C@H](O)[C@H]2CO)nn1 [Compound 21] |  |  |  |  |  | 322 µM | competitive
